Assay [1] concerns the target T1, ALK(G1202R/L1196M) (Homo sapiens, UniProt Q9UM73, G1202R/L1196M).
T1 construct: purchased Carna
The assay is described as follows: In vitro kinase inhibitory activity assay, Experimental method 2 (ADP-Glo). As to conditions: Experimental method 2; ATP 5.0 µM, substrate IGF1; read-out: Kinase half maximal inhibitory concentration IC50 ALK^G1202R/L1196M. In kind it is biochemical.

Assay [2] has as its target T2, TRKB (Homo sapiens, UniProt Q16620).
T2 construct: purchased Carna
Described as above. The conditions noted are these: Experimental method 2; ATP 5.0 µM, substrate PolyE4Y1; read-out: Kinase half maximal inhibitory concentration IC50 TRKB. In kind it is biochemical.

The target in assay [3] is T3, CYP2C9 (Homo sapiens, UniProt P11712).
T3 construct: Mixed human liver microsomes (HLM) purchased from Corning Inc; tissue Corning Inc; host or cells: pooled human liver microsomes
Put plainly: Cytochrome P450 isozyme inhibitory activity test (human liver microsomes). As to conditions: human liver microsomes 0.1 mg/mL; probe substrate Diclofenac. In kind it is in vitro ADME. As to the method:
To test the inhibitory activity of the compounds of the present disclosure on different subtypes of human liver microsomal cytochrome P450 isozymes.
Mixed human liver microsomes (HLM) purchased from Corning Inc. (Steuben, New York, USA); Diclofenac as the probe substrate (10 µM); Sulfaphenazole as the positive control inhibitor; 4'-Hydroxydiclofenac as the metabolite
Preparation of test system working solution: Human liver microsomes (HLM): HLM stock solution at 20.0 mg/mL, working solution at 0.2 mg/mL, final concentration at 0.1 mg/mL; Potassium phosphate buffer: 100 mM; Cofactor working solution: Magnesium chloride, NADP (nicotinamide adenine dinucleotide phosphate), G6P (glucose-6-phosphate), G6PDH (glucose-6-phosphate dehydrogenase), and phosphate buffer or magnesium chloride, NADPH (reduced nicotinamide adenine dinucleotide phosphate) powder, and potassium phosphate buffer; prepared into cofactor working solution at appropriate ratios;
Stop solution: Isotope-labeled 4'-hydroxydiclofenac-d4 stock solution prepared in methanol, then prepared into stop solution using acetonitrile.
In the substrate-free control sample wells of the reaction plate, 100 µL of a mixture of human liver microsome and potassium phosphate buffer was added. At the zero-time point sample wells, 98 µL of a mixture of the human liver microsome and potassium phosphate buffer was added. In the no-inhibitor control (NIC), test compound, and positive control inhibitor sample wells of the reaction plate, 100 µL of a mixture of the human liver microsome and substrate was added. From the dilution plate, 2 µL of blank solvent, test compound working solution (three parallels), and positive control inhibitor working solution (two parallels) were added to the reaction plate. The reaction plate was preheated at 37.0°C for 10 minutes. […] The concentration of specific metabolites in the samples was detected using the liquid chromatography-tandem mass spectrometry (LC-MS/MS) method. […] The IC50 values were calculated using a three-parameter or four-parameter inverse log equation.

The target of assay [4] is T4, CYP2D6 (Homo sapiens, UniProt P10635).
T4 construct: Mixed human liver microsomes (HLM) purchased from Corning Inc; tissue Corning Inc; host or cells: pooled human liver microsomes
The description is as above. In kind it is in vitro ADME. The conditions noted are these: human liver microsomes 0.1 mg/mL.

Results on one compound are retold here after EP4559919A1, “TRICYCLIC-CONTAINING MACROCYCLIC COMPOUND AND USE THEREOF” (Medshine Discovery Inc., priority 2022, dated 2024).

T4 sequence (P10635 whole entry): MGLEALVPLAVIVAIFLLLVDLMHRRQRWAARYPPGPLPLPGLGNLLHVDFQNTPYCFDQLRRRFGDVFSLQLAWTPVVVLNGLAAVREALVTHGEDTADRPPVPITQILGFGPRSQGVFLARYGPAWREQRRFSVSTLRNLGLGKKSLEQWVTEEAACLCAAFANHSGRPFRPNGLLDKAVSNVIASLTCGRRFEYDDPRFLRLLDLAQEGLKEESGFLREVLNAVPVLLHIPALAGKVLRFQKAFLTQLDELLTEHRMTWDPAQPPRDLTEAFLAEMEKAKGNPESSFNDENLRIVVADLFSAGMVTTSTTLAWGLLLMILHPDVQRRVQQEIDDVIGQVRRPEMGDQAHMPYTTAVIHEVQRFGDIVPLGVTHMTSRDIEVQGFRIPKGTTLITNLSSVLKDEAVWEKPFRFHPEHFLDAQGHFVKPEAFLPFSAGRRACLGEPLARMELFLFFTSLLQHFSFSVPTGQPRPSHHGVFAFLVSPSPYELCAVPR
T3 sequence (P11712 whole entry): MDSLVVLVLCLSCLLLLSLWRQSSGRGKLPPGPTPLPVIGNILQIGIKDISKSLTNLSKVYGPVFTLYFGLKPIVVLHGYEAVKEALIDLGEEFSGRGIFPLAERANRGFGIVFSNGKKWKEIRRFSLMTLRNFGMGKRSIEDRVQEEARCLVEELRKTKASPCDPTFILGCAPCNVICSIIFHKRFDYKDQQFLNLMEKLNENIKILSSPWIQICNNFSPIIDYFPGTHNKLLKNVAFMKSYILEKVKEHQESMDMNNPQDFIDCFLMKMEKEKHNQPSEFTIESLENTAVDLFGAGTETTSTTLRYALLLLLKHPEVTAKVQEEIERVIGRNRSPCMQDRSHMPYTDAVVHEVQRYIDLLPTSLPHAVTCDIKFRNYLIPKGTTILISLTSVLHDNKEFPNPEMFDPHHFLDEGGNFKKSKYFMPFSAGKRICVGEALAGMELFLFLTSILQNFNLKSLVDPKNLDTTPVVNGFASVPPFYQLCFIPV
T1 sequence (Q9UM73 19-1620 L1196M/G1202R): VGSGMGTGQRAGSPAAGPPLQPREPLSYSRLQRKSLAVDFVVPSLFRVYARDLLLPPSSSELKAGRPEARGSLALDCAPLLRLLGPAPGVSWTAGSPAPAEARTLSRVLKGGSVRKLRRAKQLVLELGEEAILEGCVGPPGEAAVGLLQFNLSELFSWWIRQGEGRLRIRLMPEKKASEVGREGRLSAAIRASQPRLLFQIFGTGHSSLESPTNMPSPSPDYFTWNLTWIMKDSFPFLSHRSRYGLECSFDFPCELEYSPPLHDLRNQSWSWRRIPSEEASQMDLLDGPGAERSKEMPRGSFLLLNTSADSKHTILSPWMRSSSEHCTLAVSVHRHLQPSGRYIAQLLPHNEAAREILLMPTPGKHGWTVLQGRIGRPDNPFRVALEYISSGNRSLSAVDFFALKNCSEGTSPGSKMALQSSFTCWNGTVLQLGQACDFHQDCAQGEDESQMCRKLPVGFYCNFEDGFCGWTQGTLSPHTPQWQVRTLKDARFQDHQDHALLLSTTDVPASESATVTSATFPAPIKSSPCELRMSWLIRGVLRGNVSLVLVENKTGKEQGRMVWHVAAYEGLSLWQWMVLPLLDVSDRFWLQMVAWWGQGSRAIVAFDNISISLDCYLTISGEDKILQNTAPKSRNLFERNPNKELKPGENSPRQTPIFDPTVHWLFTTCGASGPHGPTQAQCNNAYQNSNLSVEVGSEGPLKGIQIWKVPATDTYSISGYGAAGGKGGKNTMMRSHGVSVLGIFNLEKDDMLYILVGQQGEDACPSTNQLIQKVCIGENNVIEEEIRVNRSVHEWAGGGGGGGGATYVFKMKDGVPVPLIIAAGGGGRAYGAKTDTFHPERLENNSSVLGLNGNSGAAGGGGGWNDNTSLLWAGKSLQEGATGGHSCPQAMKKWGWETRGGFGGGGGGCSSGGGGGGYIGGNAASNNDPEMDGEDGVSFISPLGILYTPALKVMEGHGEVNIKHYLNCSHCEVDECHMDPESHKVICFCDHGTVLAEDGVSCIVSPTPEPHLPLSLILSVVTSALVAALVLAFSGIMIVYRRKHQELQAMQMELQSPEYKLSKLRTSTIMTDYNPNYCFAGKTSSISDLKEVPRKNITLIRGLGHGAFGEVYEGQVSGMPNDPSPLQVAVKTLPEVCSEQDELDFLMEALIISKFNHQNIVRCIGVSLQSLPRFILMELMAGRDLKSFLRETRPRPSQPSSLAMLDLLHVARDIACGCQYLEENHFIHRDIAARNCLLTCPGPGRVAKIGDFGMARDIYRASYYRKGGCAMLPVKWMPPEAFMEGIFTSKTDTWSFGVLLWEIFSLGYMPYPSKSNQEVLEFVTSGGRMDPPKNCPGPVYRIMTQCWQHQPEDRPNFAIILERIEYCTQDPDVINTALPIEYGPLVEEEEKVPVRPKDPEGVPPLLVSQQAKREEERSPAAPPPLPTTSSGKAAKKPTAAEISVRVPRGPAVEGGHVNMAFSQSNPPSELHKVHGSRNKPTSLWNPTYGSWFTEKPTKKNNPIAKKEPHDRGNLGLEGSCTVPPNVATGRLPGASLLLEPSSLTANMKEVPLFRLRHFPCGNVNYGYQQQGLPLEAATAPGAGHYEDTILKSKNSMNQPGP
T2 sequence (Q16620 32-822): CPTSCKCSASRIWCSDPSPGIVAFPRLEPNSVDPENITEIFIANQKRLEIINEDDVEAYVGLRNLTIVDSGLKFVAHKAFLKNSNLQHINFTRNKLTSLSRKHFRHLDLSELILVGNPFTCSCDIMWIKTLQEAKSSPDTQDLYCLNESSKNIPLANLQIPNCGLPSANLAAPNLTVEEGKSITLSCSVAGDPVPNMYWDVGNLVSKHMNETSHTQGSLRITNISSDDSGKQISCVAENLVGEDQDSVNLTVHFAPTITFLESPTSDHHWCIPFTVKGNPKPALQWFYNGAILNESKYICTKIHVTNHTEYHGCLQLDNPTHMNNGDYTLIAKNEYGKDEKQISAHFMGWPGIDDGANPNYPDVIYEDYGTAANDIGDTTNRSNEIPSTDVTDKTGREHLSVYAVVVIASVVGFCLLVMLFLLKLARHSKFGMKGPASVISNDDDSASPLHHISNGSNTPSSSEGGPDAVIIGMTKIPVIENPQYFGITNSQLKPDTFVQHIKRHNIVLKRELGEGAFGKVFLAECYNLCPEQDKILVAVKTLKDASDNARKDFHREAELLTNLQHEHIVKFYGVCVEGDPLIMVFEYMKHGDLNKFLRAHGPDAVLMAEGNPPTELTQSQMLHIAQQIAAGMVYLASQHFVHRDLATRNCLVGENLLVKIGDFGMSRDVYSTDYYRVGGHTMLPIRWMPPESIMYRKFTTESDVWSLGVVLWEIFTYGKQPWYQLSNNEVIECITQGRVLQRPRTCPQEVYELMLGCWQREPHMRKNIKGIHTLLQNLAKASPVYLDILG

Consider `Cc1nn2cc3c4nc2c1C(=O)NC1(CC1)COc1ccc(F)cc1CN4[C@H](C(F)F)CO3` [Compound 016], for which the IC50 in assay [1] was 0.9 nM; in assay [2], 0.3 nM; in assay [3], 3120 nM; in assay [4], more than 50000 nM.
